Results as given in PubChem BioAssay AID588404 (Broad Institute, 2011).
Results filed as inconclusive are left out. Calls of active or inactive are those of the source.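 Rule for the calls: active = every replicate run active, meaning lowered signal with potency within ten times the top valid dose; inconclusive = runs neither all active nor all inactive; inactive = all replicate runs inactive, including opposite-direction effects.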

Test system: not listed separately
Assay: growth inhibition of HsHsp90-dependent yeast, dose response, counter-screen for P. falciparum Hsp90 inhibitor project, plate reader, dry powder samples (AID 588404)
Conditions: S. cerevisiae expressing HsHsp90, growth, BacTiter-Glo 48 h; at 150 µM (top of the series)

Structure (SMILES)	activity change, negative = inhibition
O=C1C(Cl)=C(NCCc2ccccc2)C(=O)c2ccccc21	20.9% (inactive)
COc1ccc2c(c1)[nH]c1c(C)nccc12	9.79% (inactive)

Test system: S. cerevisiae expressing HsHsp90, growth, BacTiter-Glo 48 h
Assay: as above
Conditions: not given

Structure (SMILES)	AC50 [µM]
CCN(CC)c1ccc(/C=C2/SC(=O)N(C(C)C)C2=O)o1	12.3
O=S(=O)(NC1CCCCCC1)c1ccc(Br)s1	6.82
O=S(=O)(NC1CC2CCC1C2)c1ccc(Cl)cc1 (centres undefined)	7.89
O=S(=O)(/C=C/c1ccccc1)NC1CCCCCCC1	19.8
O=C1C(Cl)=C(Oc2ccccc2)C(=O)c2ccccc21	< 2.35
O=C(O)/C=C/c1cn(-c2ccccc2)nc1-c1cc2ccccc2o1	9.22
CCOc1cc(S(=O)(=O)NC2CCCCCC2)ccc1F	26.6
